Reference: patent US20020137929A1, “1 - (3-heterocyclylphenyl) isothiourea, -isourea, -guanidine and -amidine herbicidal agents” (Intellectual Property Department, BASF Aktiengesellschaft, priority 1998, published 2002)

Legend:
[1] = tested on: GALAP (Galium); assay: Preemergence herbicidal evaluation; format: in vivo, Galium aparine; settings: preemergence, rated 4-5 weeks after treatment, 0-9 scale
Procedure, shortened: (§1)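 In this greenhouse assay, monocot and dicot seeds are planted in soil and treated prior to emergence with an aqueous acetone spray (about 0.0156-0.500 kg/ha). Plants are assessed visually against control on a 0-9 scale after 4-5 weeks.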

[2] = tested on: ECHCG (Barnyardgrass); assay: Preemergence herbicidal evaluation; format: in vivo, Echinochloa crus-galli; settings: preemergence, rated 4-5 weeks after treatment, 0-9 scale
Procedure, shortened: as §1

[3] = tested on: TRZAWR (Wheat, Winter, cv Riband); assay: Postemergence herbicidal evaluation; format: in vivo, Triticum aestivum; settings: postemergence
Procedure, shortened: (§2)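 Two-week seedlings sprayed postemergence at 40 psi; formulation: 1:1 acetone/water, 0.5% TWEEN 20; application ≈0.0156–0.500 kg/ha. Greenhouse grow-out, then 0–9 visual scoring at 4–5 weeks.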

[4] = tested on: SETVI (Foxtail, Green); assay: Postemergence herbicidal evaluation; format: in vivo, Setaria viridis; settings: postemergence
Procedure, shortened: as §2

[5] = tested on: CHEAL (Lambsquarters, Common); assay: Preemergence herbicidal evaluation; format: in vivo, Chenopodium album; settings: preemergence, rated 4-5 weeks after treatment, 0-9 scale
Procedure, shortened: as §1

[6] = tested on: GLXMAW (Soybean, Williams); assay: Postemergence herbicidal evaluation; format: in vivo, Glycine max, (L.) Merr. cv Williams; settings: postemergence
Procedure, shortened: as §2

[7] = tested on: CASOB (Sicklepod); assay: Preemergence herbicidal evaluation; format: in vivo, Cassia obtusifolia; settings: preemergence, rated 4-5 weeks after treatment, 0-9 scale
Procedure, shortened: as §1

[8] = tested on: AMBEL (Ragweed, Common); assay: Postemergence herbicidal evaluation; format: in vivo, Ambrosia artemisifolia; settings: postemergence
Procedure, shortened: as §2

[9] = tested on: ABUTH (Velvetleaf); assay: Postemergence herbicidal evaluation; format: in vivo, Abutilon theophrasti; settings: postemergence
Procedure, shortened: as §2

[10] = tested on: ZEAMX (Corn, Field); assay: Preemergence herbicidal evaluation; format: in vivo, Zea mays; settings: preemergence, rated 4-5 weeks after treatment, 0-9 scale
Procedure, shortened: as §1

[11] = tested on: IPOHE (Morningglory, Ivyleaf); assay: Preemergence herbicidal evaluation; format: in vivo, Ipomoea hederacea; settings: preemergence, rated 4-5 weeks after treatment, 0-9 scale
Procedure, shortened: as §1

[12] = tested on: IPOHE (Morningglory, Ivyleaf); assay: Postemergence herbicidal evaluation; format: in vivo, Ipomoea hederacea; settings: postemergence
Procedure, shortened: as §2

[13] = tested on: ECHCG (Barnyardgrass); assay: Postemergence herbicidal evaluation; format: in vivo, Echinochloa crus-galli; settings: postemergence
Procedure, shortened: as §2

[14] = tested on: ECHORC (Watergrass (Calif.)); assay: Postemergence weed control under flooded paddy conditions; format: in vivo, Echinochloa oryzoides; settings: postemergence weeds, rated 3 to 4 weeks after treatment
Procedure, shortened: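 Containers holding 3–5 cm weeds and rice at 1.5–2.5 leaves are flooded to 1.5–3 cm above soil. Compound in 50/50 v/v aqueous/acetone is then added directly to the water, about 0.0313–0.500 kg/ha. Plants are kept in the greenhouse and rated 0–9 visually at 3–4 weeks.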

CC(C)OC(=O)CC1SC(=Nc2cc(-n3c(=O)cc(C(F)(F)F)n(C)c3=O)c(F)cc2Cl)N(C)C1=O (centres unmarked) [Compound 89, Isopropyl 2-{{2-chloro-5-[3,6-dihydro-3-methyl-2,6-dioxo-4-(trifluoromethyl)-1(2H)-pyrimidinyl]-4-fluorophenyl}imino}-3-methyl-4-oxo-5-thiazolidineacetate]
0.0: GALAP rating ([1]; 0.0156 kg/ha) | GALAP rating ([1]; 0.0313 kg/ha) | GALAP rating ([1]; 0.0625 kg/ha) | ECHCG rating ([2]; 0.0156 kg/ha) | ECHCG rating ([2]; 0.0313 kg/ha) | ECHCG rating ([2]; 0.0625 kg/ha) | CASOB rating ([7]; 0.0156 kg/ha) | CASOB rating ([7]; 0.0313 kg/ha) | CASOB rating ([7]; 0.0625 kg/ha) | ZEAMX rating ([10]; 0.0156 kg/ha) | ZEAMX rating ([10]; 0.0313 kg/ha) | IPOHE rating ([11]; 0.0156 kg/ha) | IPOHE rating ([11]; 0.0313 kg/ha)
5.5: ECHCG rating ([2]; 0.2500 kg/ha) | TRZAWR herbicidal rating ([3]; rate 0.0158 kg/ha)
7.5: GLXMAW herbicidal rating ([6]; rate 0.0158 kg/ha) | ZEAMX rating ([10]; 0.2500 kg/ha)
0.5: IPOHE rating ([11]; 0.0625 kg/ha)
9.0: GALAP rating ([1]; 0.5000 kg/ha) | ECHCG rating ([2]; 0.5000 kg/ha) | SETVI herbicidal rating ([4]; rate 0.0313 kg/ha) | SETVI herbicidal rating ([4]; rate 0.0625 kg/ha) | SETVI herbicidal rating ([4]; rate 0.1250 kg/ha) | CHEAL rating ([5]; 0.0313 kg/ha) | CHEAL rating ([5]; 0.0625 kg/ha) | CHEAL rating ([5]; 0.1250 kg/ha) | CHEAL rating ([5]; 0.2500 kg/ha) | CHEAL rating ([5]; 0.5000 kg/ha) | GLXMAW herbicidal rating ([6]; rate 0.0313 kg/ha) | GLXMAW herbicidal rating ([6]; rate 0.0625 kg/ha) | GLXMAW herbicidal rating ([6]; rate 0.1250 kg/ha) | CASOB rating ([7]; 0.5000 kg/ha) | AMBEL herbicidal rating ([8]; rate 0.0313 kg/ha) | AMBEL herbicidal rating ([8]; rate 0.0625 kg/ha) | AMBEL herbicidal rating ([8]; rate 0.1250 kg/ha) | ABUTH herbicidal rating ([9]; rate 0.0158 kg/ha) | ABUTH herbicidal rating ([9]; rate 0.0313 kg/ha) | ABUTH herbicidal rating ([9]; rate 0.0625 kg/ha) | ABUTH herbicidal rating ([9]; rate 0.1250 kg/ha) | ZEAMX rating ([10]; 0.5000 kg/ha) | IPOHE rating ([11]; 0.2500 kg/ha) | IPOHE rating ([11]; 0.5000 kg/ha) | IPOHE herbicidal rating ([12]; rate 0.0158 kg/ha) | IPOHE herbicidal rating ([12]; rate 0.0313 kg/ha) | IPOHE herbicidal rating ([12]; rate 0.0625 kg/ha) | IPOHE herbicidal rating ([12]; rate 0.1250 kg/ha) | ECHCG herbicidal rating ([13]; rate 0.0313 kg/ha) | ECHCG herbicidal rating ([13]; rate 0.0625 kg/ha) | ECHCG herbicidal rating ([13]; rate 0.1250 kg/ha)
6.5: ZEAMX rating ([10]; 0.1250 kg/ha)
6.0: CASOB rating ([7]; 0.2500 kg/ha) | Herbicidal rating ECHORC ([14]; Rate 0.2500 kg/ha)
8.5: GALAP rating ([1]; 0.2500 kg/ha)
4.5: GALAP rating ([1]; 0.1250 kg/ha)
7.0: TRZAWR herbicidal rating ([3]; rate 0.0313 kg/ha) | TRZAWR herbicidal rating ([3]; rate 0.0625 kg/ha) | TRZAWR herbicidal rating ([3]; rate 0.1250 kg/ha) | SETVI herbicidal rating ([4]; rate 0.0158 kg/ha)
1.5: IPOHE rating ([11]; 0.1250 kg/ha)
4.0: AMBEL herbicidal rating ([8]; rate 0.0158 kg/ha) | Herbicidal rating ECHORC ([14]; Rate 0.0625 kg/ha)
1.0: ZEAMX rating ([10]; 0.0625 kg/ha)
3.0: CASOB rating ([7]; 0.1250 kg/ha) | Herbicidal rating ECHORC ([14]; Rate 0.0313 kg/ha)
5.0: Herbicidal rating ECHORC ([14]; Rate 0.1250 kg/ha)
8.0: CHEAL rating ([5]; 0.0156 kg/ha)
2.0: ECHCG rating ([2]; 0.1250 kg/ha) | ECHCG herbicidal rating ([13]; rate 0.0158 kg/ha)
